Test system: inner cell mass (ICM) of NOD/SCID mouse
Experiment: Inventors' earlier attempts to establish ES cells from NOD/SCID inner cell mass by known methods
Format: cell-based
Settings: factor(s) in medium
Method: The present inventors have considered that this problem can be solved by establishing an ES cell from an NOD/SCID background mouse and introducing human gene thereinto to generate the human gene-introduced NOD/SCID background mouse. […] Furthermore, an FGF receptor inhibitor, an MEK activation inhibitor and a GSK3 inhibitor were added to the medium according to the method that established an ES cell from an NOD mouse (non-patent document 4).

Substance: ACTH: known peptide hormone consisting of 39 amino acids (SYSMEHFRWGKPVGKKRRPVKVYPNGAEDESAEAFPLEF; Corticotropin; UniProt P01189 138-176, looked up)
- establishment of ES cell: could not establish

From patent US20130059375A1, “METHOD FOR PREPARING ES CELLS” (RIKEN, priority 2010, published 2013)
